This experiment relates to KRas G12D-mediated phosphorylation of ERK. Description: Inhibition of KRas G12D-mediated phosphorylation of ERK in AGS cells. Format: cell-based. The conditions noted are these: Homo sapiens; AGS cells expressing G12D, 3 hours, phospho-ERK normalized to GAPDH. The procedure, abridged:
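In-cell Western: p-ERK Thr202/Tyr204 signal over GAPDH, as % of DMSO control, with IC50 from a 4-parameter curve. AGS cells seeded 40,000/well for 12-14 h, exposed to compound 3 h at 0.5% DMSO final, then formaldehyde-fixed and methanol-permeabilized.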
On to `Oc1ccc(OC(F)(F)F)c(-c2ncc3c(N4C[C@H]5CC[C@@H](C4)N5)nc(OCC45CCCN4CCC5)nc3c2F)c1` [Example 341, 3-(4-((1R,5S)-3,8-diazabicyclo[3.2.1]octan-3-yl)-8-fluoro-2-((tetrahydro-1H-pyrrolizin-7a(5H)-yl)methoxy)pyrido[4,3-d]pyrimidin-7-yl)-4-(trifluoromethoxy)phenol], for which the IC50 (usually the concentration at which inhibition is half-maximal) was 837 nM. That is a sub-micromolar value.
In the case of `CN1CCC[C@H]1COc1nc(N2CC3CCC(C2)N3)c2cnc(-c3c(Cl)c(O)cc4ccccc34)c(F)c2n1` [Example 337, 4-(4-(3,8-diazabicyclo[3.2.1]octan-3-yl)-8-fluoro-2-(((S)-1-methylpyrrolidin-2-yl)methoxy)pyrido[4,3-d]pyrimidin-7-yl)-3-chloronaphthalen-2-ol], the IC50 was 1620 nM.
Molecule `CCc1c(F)ccc2cccc(-c3ncc4c(N5CC6CCC(C5)N6)nc(OC[C@@]56CCCN5C[C@H](F)C6)nc4c3F)c12` (stereo in doubt) [Example 381, 4-((1R,5S)-3,8-diazabicyclo[3.2.1]octan-3-yl)-7-(8-ethyl-7-fluoronaphthalen-1-yl)-8-fluoro-2-((2-fluorotetrahydro-1H-pyrrolizin-7a(5H)-yl)methoxy)pyrido[4,3-d]pyrimidine] registered an IC50 of 708 nM.
With `CNC(=O)OC[C@H]1CC[C@@]2(COc3nc(N4CC5CCC(C4)N5)c4cnc(-c5cccc6cccc(Cl)c56)c(F)c4n3)CCCN12` [Example 408, (7a-(((4-(3,8-diazabicyclo[3.2.1]octan-3-yl)-7-(8-chloronaphthalen-1-yl)-8-fluoropyrido[4,3-d]pyrimidin-2-yl)oxy)methyl)hexahydro-1H-pyrrolizin-3-yl)methyl methylcarbamate] the figure was 238 nM; with `CN1CCC[C@H]1COc1nc(N2CC3C[C@@H](O)C(C2)N3)c2cnc(-c3cc(O)cc4ccccc34)c(F)c2n1` (stereo partly drawn) [Example 31, 3-(8-fluoro-7-(3-hydroxynaphthalen-1-yl)-2-(((S)-1-methylpyrrolidin-2-yl)methoxy)pyrido[4,3-d]pyrimidin-4-yl)-3,8-diazabicyclo[3.2.1]octan-6-ol], 2430 nM.
In turn, `Oc1cc(-c2ncc3c(N4C[C@H]5CC[C@@H](C4)N5)nc(OCC4(C(F)(F)F)CC4)nc3c2F)c2ccccc2c1` [Example 51, 4-(4-((1R,5S)-3,8-diazabicyclo[3.2.1]octan-3-yl)-8-fluoro-2-((1-(trifluoromethyl)cyclopropyl)methoxy)pyrido[4,3-d]pyrimidin-7-yl)naphthalen-2-ol] had an IC50 of 12100 nM.
`C#Cc1c(F)ccc2cccc(-c3ncc4c(N5C[C@H]6CC[C@@H](C5)N6)nc(OC[C@]56CCCN5[C@@H](COC(=O)N(C)C)CC6)nc4c3F)c12` [Example 439, ((3R,7aR)-7a-(((4-((1R,5S)-3,8-diazabicyclo[3.2.1]octan-3-yl)-7-(8-ethynyl-7-fluoronaphthalen-1-yl)-8-fluoropyrido[4,3-d]pyrimidin-2-yl)oxy)methyl)hexahydro-1H-pyrrolizin-3-yl)methyl dimethylcarbamate] returned an IC50 of 12.8 nM. This IC50 lies about 950-fold lower than the previous one.
With `OCCc1cccc2cccc(-c3ncc4c(N5C[C@H]6CC[C@@H](C5)N6)nc(OCC56CCCN5CCC6)nc4c3F)c12` [Example 239, 2-(8-(4-((1R,5S)-3,8-diazabicyclo[3.2.1]octan-3-yl)-8-fluoro-2-((tetrahydro-1H-pyrrolizin-7a(5H)-yl)methoxy)pyrido[4,3-d]pyrimidin-7-yl)naphthalen-1-yl)ethan-1-ol], the concentration for half-maximal inhibition (IC50) is 2950 nM.
`O=C(OC[C@H]1CC[C@@]2(COc3nc(N4CC5CCC(C4)N5)c4cnc(-c5cccc6cccc(Cl)c56)c(F)c4n3)CCCN12)N1CCOCC1` [Example 445, ((3R,7aR)-7a-(((4-(3,8-diazabicyclo[3.2.1]octan-3-yl)-7-(8-chloronaphthalen-1-yl)-8-fluoropyrido[4,3-d]pyrimidin-2-yl)oxy)methyl)hexahydro-1H-pyrrolizin-3-yl)methyl morpholine-4-carboxylate] returned an IC50 of 130 nM.
`Oc1cc(-c2ncc3c(N4C[C@H]5CC[C@@H](C4)N5)nc(OCC(F)(F)C(F)F)nc3c2F)c2ccccc2c1` [Example 52, 4-(4-((1R,5S)-3,8-diazabicyclo[3.2.1]octan-3-yl)-8-fluoro-2-(2,2,3,3-tetrafluoropropoxy)pyrido[4,3-d]pyrimidin-7-yl)naphthalen-2-ol]: half-maximal inhibition (IC50) required 8380 nM. This IC50 lies about 64-fold higher than the previous one.
`Oc1cc(-c2ncc3c(N4C[C@H]5CC[C@@H](C4)N5)ncnc3c2F)c2ccccc2c1` [Example 181, 4-(4-((1R,5S)-3,8-diazabicyclo[3.2.1]octan-3-yl)-8-fluoropyrido[4,3-d]pyrimidin-7-yl)naphthalen-2-ol] registered an IC50 of 12800 nM. Compared with the last molecule, the IC50 is about 1.5-fold higher.
In turn, `OCCCOc1nc(N2C[C@H]3CC[C@@H](C2)N3)c2cnc(-c3cc(O)cc4ccccc34)c(F)c2n1` [Example 75, 4-(4-((1R,5S)-3,8-diazabicyclo[3.2.1]octan-3-yl)-8-fluoro-2-(3-hydroxypropoxy)pyrido[4,3-d]pyrimidin-7-yl)naphthalen-2-ol] came in with an IC50 of more than 16700 nM.
The molecule `N#Cc1cccc2cccc(-c3ncc4c(N5C[C@H]6CC[C@@H](C5)N6)nc(OCC56CCCN5CCC6)nc4c3F)c12` [Example 198, 8-(4-((1R,5S)-3,8-diazabicyclo[3.2.1]octan-3-yl)-8-fluoro-2-((tetrahydro-1H-pyrrolizin-7a(5H)-yl)methoxy)pyrido[4,3-d]pyrimidin-7-yl)-1-naphthonitrile] showed an IC50 of 2430 nM.
Molecule `CN1CCC[C@H]1COc1nc(N2C[C@H]3CC[C@@H](C2)N3)c2cnc(-c3cccc4cccc(Cl)c34)c(F)c2n1` [Example 132, 4-((1R,5S)-3,8-diazabicyclo[3.2.1]octan-3-yl)-7-(8-chloronaphthalen-1-yl)-8-fluoro-2-(((S)-1-methylpyrrolidin-2-yl)methoxy)pyrido[4,3-d]pyrimidine] registered an IC50 of 2560 nM.
In turn, `CC(C)(C)[Si](C)(C)OCC1CCC2(COc3nc(N4C[C@H]5CC[C@@H](C4)N5)c4cnc(-c5cccc6cccc(Cl)c56)c(F)c4n3)CCCN12` (stereo partly drawn) [Example 64, 4-((1R,5S)-3,8-diazabicyclo[3.2.1]octan-3-yl)-2-((3-(((tert-butyldimethylsilyl)oxy)methyl)tetrahydro-1H-pyrrolizin-7a(5H)-yl)methoxy)-7-(8-chloronaphthalen-1-yl)-8-fluoropyrido[4,3-d]pyrimidine] had an IC50 of 3970 nM.
With `COc1cccc2cccc(-c3ncc4c(N5C[C@H]6CC[C@@H](C5)N6)nc(OCC56CCCN5CCC6)nc4c3F)c12` [Example 236, 4-((1R,5S)-3,8-diazabicyclo[3.2.1]octan-3-yl)-8-fluoro-2-((hexahydro-1H-pyrrolizin-7a-yl)methoxy)-7-(8-methoxynaphthalen-1-yl)pyrido[4,3-d]pyrimidine] the figure was 2630 nM.
On to `Oc1cc(-c2ncc3c(N4C[C@H]5CC[C@@H](C4)N5)nc(OC[C@@]45CCCN4C[C@H](F)C5)nc3c2F)c2c(Cl)cccc2c1` [Example 251, 4-(4-((1R,5S)-3,8-diazabicyclo[3.2.1]octan-3-yl)-8-fluoro-2-(((2R,7aS)-2-fluorohexahydro-1H-pyrrolizin-7a-yl)methoxy)pyrido[4,3-d]pyrimidin-7-yl)-5-chloronaphthalen-2-ol], for which the midpoint of inhibition, the IC50, lay at 10.3 nM.
With `CC(C)c1c(F)cccc1-c1ncc2c(N3C[C@H]4CC[C@@H](C3)N4)nc(OCC34CCCN3CCC4)nc2c1F` [Example 299, 4-((1R,5S)-3,8-diazabicyclo[3.2.1]octan-3-yl)-8-fluoro-7-(3-fluoro-2-isopropylphenyl)-2-((hexahydro-1H-pyrrolizin-7a-yl)methoxy)pyrido[4,3-d]pyrimidine] the figure was more than 5560 nM.
As to `CNC(=O)O[C@@H]1CN2CCC[C@]2(COc2nc(N3C[C@H]4CC[C@@H](C3)N4)c3cnc(-c4cccc5cccc(Cl)c45)c(F)c3n2)C1` [Example 435, (2S,7aR)-7a-(((4-((1R,5S)-3,8-diazabicyclo[3.2.1]octan-3-yl)-7-(8-chloronaphthalen-1-yl)-8-fluoropyrido[4,3-d]pyrimidin-2-yl)oxy)methyl)hexahydro-1H-pyrrolizin-2-yl methylcarbamate], the IC50 stood at 1820 nM.
The molecule `CC(C)n1ccnc1CCOc1nc(N2C[C@H]3CC[C@@H](C2)N3)c2cnc(-c3cc(O)cc4ccccc34)c(F)c2n1` [Example 91, 4-(4-((1R,5S)-3,8-diazabicyclo[3.2.1]octan-3-yl)-8-fluoro-2-(2-(1-isopropyl-1H-imidazol-2-yl)ethoxy)pyrido[4,3-d]pyrimidin-7-yl)naphthalen-2-ol] had an IC50 of 5510 nM. This IC50 lies about 3-fold higher than the previous one.
With `CN1CCC[C@H]1COc1nc(N2CC3CCC(CO)(C2)N3)c2cnc(-c3cc(O)cc4ccccc34)c(F)c2n1` (stereo partly drawn) [Example 215, 4-(8-fluoro-4-(1-(hydroxymethyl)-3,8-diazabicyclo[3.2.1]octan-3-yl)-2-(((S)-1-methylpyrrolidin-2-yl)methoxy)pyrido[4,3-d]pyrimidin-7-yl)naphthalen-2-ol bis(2,2,2-trifluoroacetate)] the figure was more than 16700 nM.
`C#Cc1cccc2cc(O)cc(-c3ncc4c(N5C[C@H]6CC[C@@H](C5)N6)nc(OCC56CCCN5CCC6)nc4c3F)c12` [Example 185, 4-(4-((1R,5S)-3,8-diazabicyclo[3.2.1]octan-3-yl)-8-fluoro-2-((hexahydro-1H-pyrrolizin-7a-yl)methoxy)pyrido[4,3-d]pyrimidin-7-yl)-5-ethynylnaphthalen-2-ol] registered an IC50 of 7.1 nM.
For the molecule `FCCCc1cccc2cccc(-c3ncc4c(N5C[C@H]6CC[C@@H](C5)N6)nc(OCC56CCCN5CCC6)nc4c3F)c12` [Example 255, 4-((1R,5S)-3,8-diazabicyclo[3.2.1]octan-3-yl)-8-fluoro-7-(8-(3-fluoropropyl)naphthalen-1-yl)-2-((hexahydro-1H-pyrrolizin-7a-yl)methoxy)pyrido[4,3-d]pyrimidine], the IC50 was determined as 673 nM.
As to `CC(C)c1c(F)cc(O)cc1-c1ncc2c(N3C[C@H]4CC[C@@H](C3)N4)nc(OC[C@@]34CCCN3C[C@H](F)C4)nc2c1F` [Example 290, 3-(4-((1R,5S)-3,8-diazabicyclo[3.2.1]octan-3-yl)-8-fluoro-2-(((2R,7aS)-2-fluorotetrahydro-1H-pyrrolizin-7a(5H)-yl)methoxy)pyrido[4,3-d]pyrimidin-7-yl)-5-fluoro-4-isopropylphenol], inhibition was half-maximal at 110 nM (IC50). Compared with the last molecule, the IC50 is about 6.1-fold lower.

The record behind these values is US11453683B1, “KRas G12D inhibitors” (Mirati Therapeutics, Inc., priority 2019, dated 2022).
